What was measured:
[1] = system: rabbit intraocular pressure; experiment: Rabbit intraocular pressure reduction enhancing action, combination use (Test Example 6-1); format: in vivo, Japanese white rabbit; details: 50 μL, difference of left and right eyes, 2, 4 and 6 hours
Protocol: However, the effect is not limited to the 19-1 compound, and the ophthalmic solution concentration of the 19-1 compound is not limited to those used in this test example. Moreover, as for the test compound used for combination use, similar effect can be obtained also with the compounds of the present invention represented with the example numbers mentioned in Test Example 2.
As a test compound, the 19-1 compound was dissolved in physiological saline, and the solution was neutralized by addition of sodium hydroxide (pH 7.0 to 8.0) to prepare a 0.01 weight % aqueous solution (19-1 compound aqueous solution). As the drugs for combination use, isopropyl unoprostone (trade name: Rescula, Santen Pharmaceutical) was used as a prostaglandin-related drug, and brinzolamide hydrochloride (trade name: Azopt, Alcon Japan) was used as […], as the marketed formulations as they were.
A Japanese white rabbit having a body weight of about 2 kg was placed in a positioner and naturalized for one week before the experiment. An opthalmologic local anesthesant (Benoxil) was administered to both eyes, and then intraocular pressure before instillation was measured by using a tonometer (Classic 30, Solan). A test aqueous solution or the drug for combination use was administered to the left eye, and the right eye was not treated (control eye). The test groups consisted of (1) control group, (2) group instilled only with the 19-1 compound aqueous solution (single drug group 1), (3) group instilled only with the drug for combination use (single drug group 2), and (4) group instilled with the drug for combination use and the 19-1 compound aqueous solution (combination use group), and six rabbits were used for each group. As for the rabbits of these groups, 50 μL of physiological saline was first instilled to the control group, single drug group 1, and single drug group 2, and the drug for combination use was first instilled in the same volume to the combination use group. […] The intraocular pressure thereafter was measured for each group 2, 4 and 6 hours after the second administration of the test compound, and the difference of the measured values for the left and right eyes at each measurement time was considered an intraocular pressure reduction value of each group. The largest difference of the intraocular pressure values for the left and right eyes among those of the measured values of the measurement times was considered the maximum intraocular pressure reduction value (max ΔIOP) of each drug group.

[2] = system: rabbit intraocular pressure; experiment: Rabbit intraocular pressure reduction enhancing action, combination with timolol maleate (Test Example 6-2); format: in vivo, Japanese white rabbit; details: 0.01 weight % 19-1 compound aqueous solution and/or timolol maleate (Timoptol), 50 μL; difference relative to the control group, 1, 2 and 4 hours
Protocol: As a test compound, the 19-1 compound was dissolved in physiological saline, and the solution was neutralized by addition of sodium hydroxide (pH 7.0 to 8.0) to prepare a 0.01 weight % aqueous solution (19-1 compound aqueous solution). As a drug for combination use, timolol maleate (trade name: Timoptol, Santen Pharmaceutical) was used as an adrenergic receptor β blocker, as the marketed formulation as it was.
A Japanese white rabbit having a body weight of about 2 kg was placed in a positioner and naturalized for one week before the experiment. An opthalmologic local anesthesant (Benoxil) was administered to both eyes, and then intraocular pressure before instillation was measured by using a tonometer (Classic 30, Solan). […] The intraocular pressure thereafter was measured for each group 1, 2 and 4 hours after the second administration of the test compound, and the difference of the measured values at each measurement time for the each group and the control group was considered an intraocular pressure reduction value of each group. The largest difference of the intraocular pressure values relative to the control group among those of the measured values of the measurement times was considered the maximum intraocular pressure reduction value (max ΔIOP) of each drug group.

[3] = system: monkey intraocular pressure; experiment: Intraocular pressure reduction enhancing action in monkey (Test Example 7); format: in vivo; details: cynomolgus monkey
Protocol: Moreover, as for the test compound used for combination use, similar effect can be obtained also with the compounds of the present invention represented with the example numbers mentioned in Test Example 2. The test is performed by using cynomolgus monkeys sufficiently naturalized for the operation of fixation on a monkey chair and ophathalmotonometry.
As the test compound, the 19-1 compound is dissolved in physiological saline, and the solution is neutralized by addition of sodium hydroxide (pH 7.0 to 8.0) to prepare a 0.01 weight % aqueous solution (19-1 compound aqueous solution). As a drug for combination use, latanoprost (trade name: Xalatan, Pfizer) is used as the marketed formulation per se. The test aqueous solution or the drug for combination use is instilled to the left eye, and the right eye is not treated (control eye). […] After initial intraocular pressure values of the monkeys are measured for each group, 30 μL of physiological saline is instilled to the control group, single drug group 1, and single drug group 2, and latanoprost is instilled in the same volume to the combination use group. […] Then, the intraocular pressure is measured over time for each group.

## N[C@H]1CCN(S(=O)(=O)c2cccc3cncc(Cl)c23)C1 [Example 19-1, (S)-3-Amino-1-(4-chloro-5-isoquinolinesulfonyl)pyrrolidine]
[1]; 0.01 weight % 19-1 compound aqueous solution and/or brinzolamide hydrochloride (Azopt)
  Max ΔIOP (maximum intraocular pressure reduction value), Table 2: 4.3 mmHg
[1]; 0.01 weight % 19-1 compound aqueous solution and/or isopropyl unoprostone (Rescula)
  Max ΔIOP (maximum intraocular pressure reduction value), Table 3: 4.3 mmHg
[2]
  Max ΔIOP (maximum intraocular pressure reduction value), Table 4: 4.1 mmHg
[3]; 0.01 weight % aqueous solution, 30 μL
  intraocular pressure reducing action in the single drug group 1: exceeding that of the control group
[3]; latanoprost (Xalatan) 30 μL, 5 minutes later 19-1 compound aqueous solution 30 μL
  intraocular pressure reducing action in the combination use group: exceeding those of both the single drug group 1 and single drug group 2
